# Experimental data as given in patent US8003595B2, “Amino acid sequences facilitating penetration of a substance of interest into cells and/or cell nuclei” (Cellectis, priority 2000, dated 2011).
# pKd: −log10 of the molar value. Where two headings read alike, the source gives them in different places. Where no end group is shown, it is not given here.
# How the values were obtained:
# [1] = test system: Enterococcus faecalis (ATCC 29212); test: microbe, parasite or virus in culture; format: cell-based; conditions: E. faecalis
# Protocol: (§1) The gram-positive bacterial strains are: Enterococcus faecalis (ATCC 29212), and Staphylococcus aureus (ATCC 25923) and the gram-negative strains are: Escherichia coli (ATCC 25922), Pseudomonas aeruginosa (ATCC 27853) and Salmonella typhimurim (clinical isolate), Salmonella typhiTy2 (WHO). The bacteria are cultured with shaking all night at 37° C., then recultured at a dilution of 1:50 in some fresh Luria-Bertani (LB) medium for 2 hours. The bacterial concentration is adjusted to […], and 50 μl is distributed in 96-well plates with an equal volume of peptides diluted half and half (256-0.5 μg/ml) in LB medium. […] To determine the minimum bactericide concentration, 10 μl from each well is spread on gelose plates in LB medium.
# (§2) The results are expressed as the peptide concentration in MBC (μM).
# [2] = test system: Pseudomonas aeruginosa (ATCC 27853); test: microbe, parasite or virus in culture; format: cell-based; conditions: P. aeruginosa
# Protocol: as §1, §2
# [3] = test system: Staphylococcus aureus (ATCC 25923); test: microbe, parasite or virus in culture; format: cell-based; conditions: S. aureus
# Protocol: as §1, §2
# [4] = test system: Escherichia coli (ATCC 25922); test: microbe, parasite or virus in culture; format: cell-based; conditions: E. coli, read-out: MBC
# Protocol: as §1, §2
# [5] = test system: Salmonella typhiTy2 (WHO); test: microbe, parasite or virus in culture; format: cell-based, S. typhi-Ty2
# Protocol: as §1, §2
# [6] = test system: Salmonella typhimurim (clinical isolate); test: Antibacterial activity of cationic peptides (MBC); format: cell-based; conditions: S. typhimurium
# Protocol: as §1, §2
# [7] = test system: H1299 cells; test: Internalization of covalent peptide-peroxidase conjugates; format: cell-based, human; conditions: Table 9; H1299; 0.2 μg/ml conjugate, 2 hours
# Protocol: (§3) To evaluate more directly the penetration of the peptides, avoiding the avidin-peroxidase bias, some of the peptides in sequences SEQ ID NO: 25 to 48 were conjugated covalently with cysteine in the C-terminal position of the peptide to peroxidase. The peptides were coupled with peroxidase in the following way:
# (§4) One mg of peroxidase activated with maleimide (Sigma) in 100 μl of sodium phosphate buffer, NaCl 0.15 M, EDTA 5 mM, had 1 mg of peptide added to it. After 2 hours at laboratory temperature, β-mercaptoethanol is added to a final concentration of 1.5 mM for 15 minutes. The uncoupled peptide is eliminated by centrifugation on ultrafiltration membranes (cut-off threshold=30,000 Daltons, Sartorius), followed by three washings in sodium phosphate buffer 0.1 M, pH 7.4 containing 0.15 M NaCl.
# The H1299 cells are incubated for 2 hours with the conjugates at increasing concentrations of peptide-peroxidase in the culture medium, then washed with PBS. The cells are lysed and the quantity of peptide internalized is evaluated by the dosage of peroxidase in the lysate of the cells with reference to a curve established with peptide-peroxidase.
# The quantity of peptide internalized (pg/10^3 cells), depending on the concentrations of conjugates in the culture medium, is shown in Table 8 below.
# (§5) It appears that the higher the concentration of peptide-peroxidase conjugate in the culture medium, the more the quantity internalized increases. To compare the penetration of the conjugates by cell type, the cells from different lines were incubated with 0.2 μg/ml of peptide-peroxidase conjugate for 2 hours, and the quantity of peroxidase dosed in the lysates. Table 9 and Table 9B below give the results expressed in pg/10^3 cells. The quantity of each peptide internalized in the different lines generally varies only from single to double.
# [8] = test system: HeLa; test: as above; format: cell-based, human; conditions: Table 9, 0.2 μg/ml conjugate, 2 hours
# Protocol: as §3, §4, §5
# [9] = ELISA fixation of biotinylated peptides on sensitized plates; format: binding; conditions: read-out: avidity (Kd), quantity of peptides necessary to obtain 50% fixation, Chondroitin A; Table 5
# [10] = as above; format: binding; conditions: read-out: avidity (Kd), quantity of peptides necessary to obtain 50% fixation, Chondroitin C; Table 5
# [11] = as above; format: binding; conditions: read-out: avidity (Kd), quantity of peptides necessary to obtain 50% fixation, Chondroitin B; Table 5
# [12] = test system: 3T3; test: Internalization of covalent peptide-peroxidase conjugates; format: cell-based, mouse; conditions: Table 9, 0.2 μg/ml conjugate, 2 hours
# Protocol: as §3, §4, §5
# [13] = ELISA fixation of biotinylated peptides on sensitized plates; format: binding; conditions: read-out: avidity (Kd), quantity of peptides necessary to obtain 50% fixation, Heparin; Table 5; listed as HBP8
# Protocol: The capacity of peptides SEQ ID NO: 1 to 21 to attach themselves to DNA and heparin is evaluated on ELISA plates sensitized with DNA or heparin. Dilutions of biotinylated peptides are deposited on the plates and their fixation is shown using streptavidin conjugated with peroxidase. […] The avidity of each of the peptides for DNA or heparin is evaluated by the quantity (×10^−6 M) of peptides necessary to obtain 50% fixation.
Molecule,MBC [6] [µM],MBC [1] [µM],MBC [2] [µM],MBC [3] [µM],MBC [4] [µM],Internalization of Peptide-peroxidase [7] [pg/10^3 cells],Internalization of Peptide-peroxidase [8] [pg/10^3 cells],pKd [9],pKd [10],pKd [11],Internalization of Peptide-peroxidase [12] [pg/10^3 cells],also measured
"CC1(C)S[C@@H]2[C@H](NC(=O)[C@H](N)c3ccccc3)C(=O)N2[C@H]1C(=O)O [Ampicillin, reference compound]",11,,,,,,,,,,,"MBC ([1]; Enterococcus faecalis, ATCC29212): 2.75 µM; MBC ([2]; Pseudomonas aeruginosa, ATCC27853): > 696 µM; MBC ([3]; Staphylococcus aureus, ATCC25923): < 0.68 µM; MBC ([4]; Escherichia coli, ATCC25922): 22 µM; MBC ([5]; Salmonella, TYPHI): 5.5 µM"
"CC(C)C[C@H](NC(=O)[C@H](CCCCN)NC(=O)[C@H](C)NC(=O)[C@H](CC(C)C)NC(=O)[C@H](CCCCN)NC(=O)[C@H](CCCCN)NC(=O)[C@H](C)NC(=O)[C@H](CC(C)C)NC(=O)[C@H](CCCCN)NC(=O)[C@H](C)NC(=O)[C@H](CC(C)C)NC(=O)[C@@H](N)CCCCN)C(=O)N[C@@H](C)C(=O)N[C@@H](CCCCN)C(=O)O [SEQ ID NO: 24, reference compound]",110,>110,27.5,>110,55,,,,,,,MBC ([5]; S. typhi-Ty2): 27.5 µM
AKTGKRKRSG [SEQ ID NO: 36],,,,,,10.6,4.4,6.54,6.69,6.52,20.3,
GLKKNGSCKRGPR [SEQ ID NO: 33],,,,,,3.6,2.1,6.65,6.96,6.59,7.6,pKd [13]: 6.77
KLAKLAKKLAKLAKGKRKKKGKLGKKRDP [SEQ ID NO: 44],1.27,>110,>110,>110,1.7,,,,,,,MBC ([5]; Ty2 (WHO)): 0.64 µM
KLAKLAKKLAKLAKKHLKKHLKKHLK [SEQ ID NO: 45],1,>680,0.5,>680,1,,,,,,,MBC ([5]; Ty2 (WHO)): 0.66 µM
QGKSKREKKDRVF [SEQ ID NO: 37],,,,,,4.3,2.5,6.75,7.03,6.76,5.7,
